The values that follow come from paper PMC10827914 (Cellular and Molecular Life Sciences: CMLS, 2024).

Experiment [1] has as its system membrane CD13 expressed by HUVEC. Put plainly: Competitive binding of anti-CD13 mAb WM15 to HUVEC by flow cytometry. Also noted: species or system human. The procedure: HUVEC were seeded in 96-well U-bottom polystyrene microtiter plates at a density of 2 × 10^5 cells in 100 µL DPBS supplemented with 5% normal human serum (NHS) and mixed with a mixture of peptide G4 ranging from 0 to 10 µM and mAb WM15 (0 or 0.13 nM). The chromogranin A429-439 peptide fragment (CgA429-439) was used instead of G4 as a control. After 1 h of incubation at 4 °C, the cells were washed and resuspended in 100 µL of DPBS containing 5% NHS and 1 µg/mL of FITC-labeled goat anti-mouse IgG secondary antibody. Cells were subsequently incubated for 1 h at 4 °C, washed, and analyzed by flow cytometry. All flow cytometry data were collected on a CytoFLEX S flow cytometer (Beckman Coulter) and analyzed using FlowJo software 10 (BD BioScience).
Fig. 2 G4 recognizes soluble forms of CD13, with higher affinity and selectivity than bestatin, and the membrane forms expressed on the surface of HUVEC cells. A Inhibitory effects of G4 and bestatin on the enzymatic activities of different aminopeptidases (rCD13, APA, and APB). Various amounts of G4 or bestatin were incubated with rCD13 (0.2 µg/mL in 60 mM Tris–HCl pH 7.4), APA (0.2 µg/mL in 60 mM Tris–HCl pH 7.4, 50 mM calcium chloride, 200 mM sodium chloride) or APB (0.2 µg/mL in 60 mM Tris–HCl pH 7.4, 100 mM potassium chloride) and the corresponding substrates at 0.1 mM (L-alanine-7-amido-4-methylcoumarin for rCD13, L-glutamic acid γ-(7-amido-4-methylcoumarin) for APA, and L-arginine-7-amido-4-methylcoumarin for APB). The mixtures were incubated for 30 min at 37 °C, and the cleavage of each substrate was monitored by measuring the fluorescence of methylcoumarin (λex 341 nm; λem 441 nm) using an Infinite 200 PRO plate reader (Tecan). Three independent experiments were performed for each enzyme. […] Substrate cleavage by sCD13 dissociated from mAb WM15 was then monitored by measuring the absorbance at 405 nm in each well using a plate reader (Bio-Rad). […] After incubation for 60 min at 4 °C, the cells were washed and analyzed by flow cytometry. Data are expressed as the percentage of counts vs. fluorescence intensity units […]
In general terms: In flow cytometry, cells or beads pass a laser one at a time.

Experiment [2] has as its system soluble CD13 from human serum (sCD13). Put plainly: Competitive ELISA of sCD13 binding to mAb WM15. The following applies: plates coated with mAb WM15 5 μg/mL, human serum diluted 1:2, 2 h, room temperature. The procedure: Fig. 4 The active site of membrane CD13 expressed by HUVEC, but not that of soluble CD13 or membrane CD13 expressed by HL60 cells, is accessible to G4-TNF. A Competitive effects of G4 and G4-TNF on the binding of mAb WM15 (anti-CD13) to sCD13 or rCD13 showing the lack of binding of G4-TNF to natural and recombinant soluble CD13 (sCD13 and rCD13). G4, scrambled G4 (GCRSNCYRVG), and TNF were used as positive (G4) and negative (scrambled G4, TNF) controls. The sCD13 competition assay was performed as follows: microplates were coated with mAb WM15 (5 μg/mL) in DPBS and incubated overnight at 4 °C. […] The mixtures were incubated for 2 h at room temperature and washed with DPBS. To detect bound sCD13, we added an anti-CD13 rabbit polyclonal antibody (1:1000, 1 h at room temperature), washed with DPBS, and added peroxidase-labeled goat anti-rabbit secondary antibody (1:2000, 1 h). Bound peroxidase was detected using o-phenylendiamine chromogenic substrate. The absorbance of o-phenylenediamine was measured at 490 nm using an ELISA plate reader (Bio-Rad). Cumulative results of two independent experiments, each performed in duplicate, are shown (mean ± SEM). The rCD13 competition assay was performed as described in Supplementary Fig. S2 (one experiment in duplicate, mean ± SEM). […]

Take “VGCARRYCS-TNF [G4-TNF, recombinant murine TNF fused to the C-terminus of G4]”: the “Competition of mAb WM15 binding to HUVEC (in words)” value in experiment [1] (Fig. 4C and 4D) is given as “competed the binding of mAb WM15 to endothelial cells”; in experiment [1] (competitor 5 µM, mAb WM15 0.13 nM, 60 min, 4 °C, Supplementary Fig. S4D) it was “competed with the binding of mAb WM15 (anti-CD13) to HUVEC to an extent similar to that observed with G4”. For the same substance, the “Competition of sCD13 binding to mAb WM15 (in words)” value in experiment [2] is on record as “no competition was observed”.
